# According to PubChem BioAssay AID2060599 (Molecular Pharmacology Branch, DTP, NCI, 2025):
# System: 817829-284-R-J1-PDC complex spheroids, viability
# Test: Anticancer human tumor 817829-284-R-J1-PDC patient-derived colon adenocarcinoma cell line growth inhibition [CLK]
# Conditions: for IC50: curve of first compound; for viability, T/C: stronger effect = lower value
# Description: A high-throughput screen of multi-cell type tumor spheroids was designed to identify active combinations of […] and targeted small molecules. Complex spheroids include a stromal component modeled by human endothelial cells (HUVEC) and fibroblasts modeled by human mesenchymal stem cells (MSCs). The concentration ranges selected for each drug and investigational agent were based upon clinically achievable concentrations if the clinical Cmax of the agent was known.
# Compounds. The drugs and investigational agents: cirtuvivint (SM08502; NSC835563), CC-671 (NSC850746), vemurafenib (NSC761431), tapotoclax (NSC804041), sotorasib (NSC818433), adagrasib (NSC831453), MRTX-1133 (NSC836407), BAY2416964 (NSC825713), copanlisib (NSC816437), inavolisib (NSC800729), abemaciclib (NSC768073), osimertinib (NSC779217), entinostat (NSC756642), eltanexor (KPT-8602, NSC794443), venetoclax (NSC766270), ceralasertib (NSC777638), bortezomib (NSC756655), olaparib (NSC753686), talazoparib (NSC767125), alisertib (NSC759677), peposertib (NSC802822), gemcitabine (NSC613327), 5-fluorouracil (NSC19893), SN-38 (NSC673596), oxaliplatin (NSC266046), paclitaxel (NSC125973), and doxorubicin (NSC123127), were obtained from the National Cancer Institute (NCI) Developmental Therapeutics Program Chemical Repository. The FDA-approved anticancer drug set is available from the Developmental Therapeutics Program at https://dtp.cancer.gov/organization/dscb/obtaining/available plates.htm. […] The stock solutions were prepared in dimethyl sulfoxide (DMSO, Sigma-Aldrich, St. Louis, MO, cat. D2650), except for the platinum complexes which were prepared in saline (Quality Biological, Gaithersburg, MD, cat. 114-055-101), at 800-fold the tested concentration and stored at -70 degrees C prior to their use. All drugs and investigational agents were tested over a range starting from a high concentration at or near the clinical Cmax and decreasing in half-log increments. If the clinical Cmax for an agent had not been determined, the highest concentration tested was 10 microM.
# Cell Culture. All cells were maintained in an incubator at 37 degrees C and 5% CO2 with 95% humidity. The PDC lines were cultured according to standard operating procedures established by the NCI PDMR. Briefly, all PDCs were thawed and cultured in Matrigel-coated flasks prepared with a working solution of 1X Ham's F-12 nutrient mix, without supplementation (Invitrogen, Waltham, MA, cat. 11765054), 100 U/mL penicillin-streptomycin (Invitrogen, cat. 15140122), and 2.5% Matrigel (Corning Inc., Corning, NY, cat. 354248) for the first three passages. The 947758-054-R-J2-PDC line was cultured in 6B/Colon 1A media, which includes advanced DMEM/F-12 (Thermo Fisher Scientific, cat. 12634028), 10 mM HEPES (Thermo Fisher Scientific, cat. 15630080), 1X GlutaMAX supplement (Thermo Fisher Scientific, cat. 35050061), 0.1 mg/mL primocin (InvivoGen, cat. ant-pm-2), 10% defined fetal bovine serum, heat inactivated (HyClone Laboratories Inc., cat. SH30070.03HI), 1.25 mM N-Acetyl-L-cysteine (Sigma-Aldrich, cat. A9165), 10 mM nicotinamide (Sigma-Aldrich, cat. N0636), 1X B-27 supplement (Thermo Fisher Scientific, cat. 17504044), 1X N-2 supplement (Thermo Fisher Scientific, cat. 17502048), and 10 microM Y-27632 dihydrochloride (Tocris Bioscience, cat. 1254). The 876862-298-R-J1-PDC was cultured in 6E media, which includes all 6B/Colon 1A media components plus 50% L-WRN conditioned media (ATCC, cat. CRL-3276), 50 ng/mL recombinant human EGF recombinant protein (hEGF; Thermo Fisher Scientific, cat. PHG0311), 10 ng/mL recombinant human fibroblast growth factor 10 (hGFG-10; PeproTech, cat. 100-26), 1 ng/mL recombinant human fibroblast growth factor 2 (hFGF-2; PeproTech, cat. 100-18B), and 1 µM prostaglandin E2 (PGE2; Tocris, cat. 2296). The 227483-062-R1-J1-PDC line was cultured in Panc media, containing all 6E components except hFGF-2, with the addition of 500 nM SB-431542 (Selleckchem, cat. S1067) and 10 nM gastrin (Tocris, cat. 3006). […]
# [1] = second compound 0.0316 µM, first compound 0.0316 µM
# [2] = second compound 0.0316 µM, first compound 0.1 µM
# [3] = second compound 0.0316 µM, first compound 0.316 µM
# [4] = second compound 0.0316 µM, first compound 1 µM
# [5] = second compound 0.0316 µM, first compound 3.16 µM
# [6] = second compound 0.0316 µM, first compound 10 µM
# [7] = second compound 0.1 µM, first compound 0.0316 µM
# [8] = second compound 0.1 µM, first compound 0.1 µM
# [9] = second compound 0.1 µM, first compound 0.316 µM
# [10] = second compound 0.1 µM, first compound 1 µM
# [11] = second compound 0.1 µM, first compound 3.16 µM
# [12] = second compound 0.1 µM, first compound 10 µM
# [13] = second compound 0.316 µM, first compound 0.0316 µM
# [14] = second compound 0.316 µM, first compound 0.1 µM
# [15] = second compound 0.316 µM, first compound 0.316 µM
# [16] = second compound 0.316 µM, first compound 1 µM
# [17] = second compound 0.316 µM, first compound 3.16 µM
# [18] = second compound 0.316 µM, first compound 10 µM
# [19] = second compound 1 µM, first compound 0.0316 µM
# [20] = second compound 1 µM, first compound 0.1 µM
# [21] = second compound 1 µM, first compound 0.316 µM
# [22] = second compound 1 µM, first compound 1 µM
# [23] = second compound 1 µM, first compound 3.16 µM
# [24] = second compound 1 µM, first compound 10 µM
# [25] = second compound 3.16 µM, first compound 0.0316 µM
# [26] = second compound 3.16 µM, first compound 0.1 µM
# [27] = second compound 3.16 µM, first compound 0.316 µM
# [28] = second compound 3.16 µM, first compound 1 µM
# [29] = second compound 3.16 µM, first compound 3.16 µM
# [30] = second compound 3.16 µM, first compound 10 µM
# [31] = second compound 10 µM, first compound 0.0316 µM
# [32] = second compound 10 µM, first compound 0.1 µM
# [33] = second compound 10 µM, first compound 0.316 µM
# [34] = second compound 10 µM, first compound 1 µM
# [35] = second compound 10 µM, first compound 3.16 µM
# [36] = second compound 10 µM, first compound 10 µM
# 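Further: spheroids exposed to the agents for seven days before readout.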
structure (smiles),measurement,setting,value
C#Cc1c(F)ccc2cc(O)cc(-c3ncc4c(N5CC6CCC(C5)N6)nc(OCC56CCCN5CC(F)C6)nc4c3F)c12 (stereo unspecified) + CN1CCN(c2cc(C(=O)Nc3cc4cc(-c5cnn(C)c5)ccc4cn3)ccn2)CC1,IC50,second compound 0.0316 µM,4960 nM
same,IC50,second compound 0.1 µM,< 31.6 nM
same,IC50,second compound 0.316 µM,< 31.6 nM
same,IC50,second compound 1 µM,< 31.6 nM
same,IC50,second compound 3.16 µM,< 31.6 nM
same,IC50,second compound 10 µM,< 31.6 nM
same,"viability, T/C",[1],83.1%
same,"viability, T/C",[2],61%
same,"viability, T/C",[3],66.3%
same,"viability, T/C",[4],68.5%
same,"viability, T/C",[5],57.3%
same,"viability, T/C",[6],40.5%
same,"viability, T/C",[7],24.2%
same,"viability, T/C",[8],19.4%
same,"viability, T/C",[9],19.8%
same,"viability, T/C",[10],17.4%
same,"viability, T/C",[11],15.2%
same,"viability, T/C",[12],11.8%
same,"viability, T/C",[13],2.71%
same,"viability, T/C",[14],2.39%
same,"viability, T/C",[15],2.14%
same,"viability, T/C",[16],2.39%
same,"viability, T/C",[17],2.31%
same,"viability, T/C",[18],1.5%
same,"viability, T/C",[19],0.1%
same,"viability, T/C",[20],0.14%
same,"viability, T/C",[21],0.17%
same,"viability, T/C",[22],0.12%
same,"viability, T/C",[23],0.09%
same,"viability, T/C",[24],0.09%
same,"viability, T/C",[25],0.15%
same,"viability, T/C",[26],0.13%
same,"viability, T/C",[27],0.15%
same,"viability, T/C",[28],0.16%
same,"viability, T/C",[29],0.13%
same,"viability, T/C",[30],0.07%
same,"viability, T/C",[31],0.1%
same,"viability, T/C",[32],0.11%
same,"viability, T/C",[33],0.11%
same,"viability, T/C",[34],0.16%
same,"viability, T/C",[35],0.17%
same,"viability, T/C",[36],0.13%
C=C(F)C(=O)N1CCN(c2nc(OCC3CCCN3C)nc3c2CCN(c2cccc4cccc(Cl)c24)C3)CC1CC#N (stereo unspecified) + CN1CCN(c2cc(C(=O)Nc3cc4cc(-c5cnn(C)c5)ccc4cn3)ccn2)CC1,IC50,second compound 0.0316 µM,1600 nM
same,IC50,second compound 0.1 µM,< 31.6 nM
same,IC50,second compound 0.316 µM,< 31.6 nM
same,IC50,second compound 1 µM,< 31.6 nM
same,IC50,second compound 3.16 µM,< 31.6 nM
same,IC50,second compound 10 µM,< 31.6 nM
same,"viability, T/C",[1],79.5%
same,"viability, T/C",[2],71.8%
same,"viability, T/C",[3],63.4%
same,"viability, T/C",[4],79.5%
same,"viability, T/C",[5],16.2%
same,"viability, T/C",[6],0.06%
same,"viability, T/C",[7],24.5%
same,"viability, T/C",[8],29.8%
same,"viability, T/C",[9],16.7%
same,"viability, T/C",[10],22.5%
same,"viability, T/C",[11],9.48%
same,"viability, T/C",[12],0.04%
same,"viability, T/C",[13],2.04%
same,"viability, T/C",[14],2.26%
same,"viability, T/C",[15],2.74%
same,"viability, T/C",[16],2.59%
same,"viability, T/C",[17],0.76%
same,"viability, T/C",[18],0.04%
same,"viability, T/C",[19],0.15%
same,"viability, T/C",[20],0.11%
same,"viability, T/C",[21],0.11%
same,"viability, T/C",[22],0.11%
same,"viability, T/C",[23],0.84%
same,"viability, T/C",[24],0.05%
same,"viability, T/C",[25],0.2%
same,"viability, T/C",[26],0.19%
same,"viability, T/C",[27],0.2%
same,"viability, T/C",[28],0.15%
same,"viability, T/C",[29],0.11%
same,"viability, T/C",[30],0.08%
same,"viability, T/C",[31],0.1%
same,"viability, T/C",[32],0.11%
same,"viability, T/C",[33],0.19%
same,"viability, T/C",[34],0.21%
same,"viability, T/C",[35],0.2%
same,"viability, T/C",[36],0.16%
CC(CO)NC(=O)c1cc(-c2ccc(Cl)cc2)nn(-c2cnn(C)c2)c1=O (stereo unspecified) + CN1CCN(c2cc(C(=O)Nc3cc4cc(-c5cnn(C)c5)ccc4cn3)ccn2)CC1,IC50,second compound 0.0316 µM,3780 nM
same,IC50,second compound 0.1 µM,< 31.6 nM
same,IC50,second compound 0.316 µM,< 31.6 nM
same,IC50,second compound 1 µM,< 31.6 nM
same,IC50,second compound 3.16 µM,< 31.6 nM
same,IC50,second compound 10 µM,< 31.6 nM
same,"viability, T/C",[1],62.9%
same,"viability, T/C",[2],71.7%
same,"viability, T/C",[3],61.2%
same,"viability, T/C",[4],78.3%
same,"viability, T/C",[5],53.1%
same,"viability, T/C",[6],33%
same,"viability, T/C",[7],18.3%
same,"viability, T/C",[8],15.8%
same,"viability, T/C",[9],16.9%
same,"viability, T/C",[10],15.6%
same,"viability, T/C",[11],15.4%
same,"viability, T/C",[12],14.6%
same,"viability, T/C",[13],2.63%
same,"viability, T/C",[14],2.2%
same,"viability, T/C",[15],2.62%
same,"viability, T/C",[16],2.67%
same,"viability, T/C",[17],2.25%
same,"viability, T/C",[18],2.13%
same,"viability, T/C",[19],0.11%
same,"viability, T/C",[20],0.12%
same,"viability, T/C",[21],0.15%
same,"viability, T/C",[22],0.11%
same,"viability, T/C",[23],0.11%
same,"viability, T/C",[24],0.13%
same,"viability, T/C",[25],0.18%
same,"viability, T/C",[26],0.27%
same,"viability, T/C",[27],0.22%
same,"viability, T/C",[28],0.18%
same,"viability, T/C",[29],0.29%
same,"viability, T/C",[30],0.19%
same,"viability, T/C",[31],0.11%
same,"viability, T/C",[32],0.14%
same,"viability, T/C",[33],0.17%
same,"viability, T/C",[34],0.21%
same,"viability, T/C",[35],0.23%
same,"viability, T/C",[36],0.19%
